Laboratory results published in ChEMBL document CHEMBL5029145, “Discovery of AZD8154, a Dual PI3Kγδ Inhibitor for the Treatment of Asthma” (J Med Chem, 2021).

Experiments:
[1] = molecular target: T1, Phosphatidylinositol 4,5-bisphosphate 3-kinase catalytic subunit delta isoform (Homo sapiens, UniProt O00329); experiment: Inhibition of recombinant human PI3Kdelta assessed as reduction in ADP production using Dic8-PIP2 as substrate pre-treated for 15 mins followed by substrate addition measured after 60 mins by ADP-glo assay
T1 sequence (O00329 whole entry): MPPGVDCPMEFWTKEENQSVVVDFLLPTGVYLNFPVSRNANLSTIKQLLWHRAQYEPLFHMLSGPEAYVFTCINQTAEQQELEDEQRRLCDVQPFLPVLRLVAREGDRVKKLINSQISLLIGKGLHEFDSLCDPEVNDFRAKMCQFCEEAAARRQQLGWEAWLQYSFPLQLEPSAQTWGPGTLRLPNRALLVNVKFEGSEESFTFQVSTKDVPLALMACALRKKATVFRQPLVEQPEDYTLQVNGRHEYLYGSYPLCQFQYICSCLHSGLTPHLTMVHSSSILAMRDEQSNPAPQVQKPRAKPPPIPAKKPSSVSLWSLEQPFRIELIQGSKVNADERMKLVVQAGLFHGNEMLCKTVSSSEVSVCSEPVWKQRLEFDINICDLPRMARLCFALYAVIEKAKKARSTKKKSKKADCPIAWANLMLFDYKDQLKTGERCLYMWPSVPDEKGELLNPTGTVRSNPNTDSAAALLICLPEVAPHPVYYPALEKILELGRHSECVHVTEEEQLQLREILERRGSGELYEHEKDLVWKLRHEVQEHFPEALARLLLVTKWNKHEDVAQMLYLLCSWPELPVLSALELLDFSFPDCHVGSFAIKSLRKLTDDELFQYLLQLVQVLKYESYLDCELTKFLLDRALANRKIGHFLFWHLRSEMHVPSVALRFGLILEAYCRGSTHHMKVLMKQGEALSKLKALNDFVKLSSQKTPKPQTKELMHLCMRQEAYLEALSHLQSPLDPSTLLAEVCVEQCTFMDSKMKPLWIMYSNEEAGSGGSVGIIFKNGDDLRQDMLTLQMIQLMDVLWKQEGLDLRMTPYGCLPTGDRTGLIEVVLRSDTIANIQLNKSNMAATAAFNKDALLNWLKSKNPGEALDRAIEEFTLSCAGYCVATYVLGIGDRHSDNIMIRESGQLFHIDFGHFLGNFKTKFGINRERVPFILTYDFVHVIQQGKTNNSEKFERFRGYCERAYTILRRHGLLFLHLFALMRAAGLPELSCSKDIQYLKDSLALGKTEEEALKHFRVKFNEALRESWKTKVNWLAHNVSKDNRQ

[2] = molecular target: Phosphatidylinositol 4,5-bisphosphate 3-kinase catalytic subunit gamma isoform (Homo sapiens, UniProt P48736); experiment: Inhibition of recombinant human PI3Kgamma assessed as reduction in ADP production using Dic8-PIP2 as substrate pre-treated for 15 mins followed by substrate addition measured after 60 mins by ADP-glo assay
[3] = molecular target: T1, Phosphatidylinositol 4,5-bisphosphate 3-kinase catalytic subunit delta isoform; experiment: Inhibition of PI3Kdelta in anti-IgM-stimulated human JeKo-1 cells assessed as inhibition of AKT phosphorylation at Ser473 residue incubated for 60 mins by TR-FRET assay
[4] = molecular target: Phosphatidylinositol 4,5-bisphosphate 3-kinase catalytic subunit gamma isoform (Mus musculus, UniProt Q9JHG7); experiment: Inhibition of PI3Kgamma in C5a-stimulated mouse RAW 264 cells assessed as inhibition of AKT phosphorylation at Ser473 residue Pretreated for 15 mins followed by C5a stimulation measured after 3 mins by HTRF assay; format: cell-based
Sequence of Phosphatidylinositol 4,5-bisphosphate 3-kinase catalytic subunit gamma isoform (Mus musculus, UniProt Q9JHG7) (Q9JHG7 whole entry, canonical isoform): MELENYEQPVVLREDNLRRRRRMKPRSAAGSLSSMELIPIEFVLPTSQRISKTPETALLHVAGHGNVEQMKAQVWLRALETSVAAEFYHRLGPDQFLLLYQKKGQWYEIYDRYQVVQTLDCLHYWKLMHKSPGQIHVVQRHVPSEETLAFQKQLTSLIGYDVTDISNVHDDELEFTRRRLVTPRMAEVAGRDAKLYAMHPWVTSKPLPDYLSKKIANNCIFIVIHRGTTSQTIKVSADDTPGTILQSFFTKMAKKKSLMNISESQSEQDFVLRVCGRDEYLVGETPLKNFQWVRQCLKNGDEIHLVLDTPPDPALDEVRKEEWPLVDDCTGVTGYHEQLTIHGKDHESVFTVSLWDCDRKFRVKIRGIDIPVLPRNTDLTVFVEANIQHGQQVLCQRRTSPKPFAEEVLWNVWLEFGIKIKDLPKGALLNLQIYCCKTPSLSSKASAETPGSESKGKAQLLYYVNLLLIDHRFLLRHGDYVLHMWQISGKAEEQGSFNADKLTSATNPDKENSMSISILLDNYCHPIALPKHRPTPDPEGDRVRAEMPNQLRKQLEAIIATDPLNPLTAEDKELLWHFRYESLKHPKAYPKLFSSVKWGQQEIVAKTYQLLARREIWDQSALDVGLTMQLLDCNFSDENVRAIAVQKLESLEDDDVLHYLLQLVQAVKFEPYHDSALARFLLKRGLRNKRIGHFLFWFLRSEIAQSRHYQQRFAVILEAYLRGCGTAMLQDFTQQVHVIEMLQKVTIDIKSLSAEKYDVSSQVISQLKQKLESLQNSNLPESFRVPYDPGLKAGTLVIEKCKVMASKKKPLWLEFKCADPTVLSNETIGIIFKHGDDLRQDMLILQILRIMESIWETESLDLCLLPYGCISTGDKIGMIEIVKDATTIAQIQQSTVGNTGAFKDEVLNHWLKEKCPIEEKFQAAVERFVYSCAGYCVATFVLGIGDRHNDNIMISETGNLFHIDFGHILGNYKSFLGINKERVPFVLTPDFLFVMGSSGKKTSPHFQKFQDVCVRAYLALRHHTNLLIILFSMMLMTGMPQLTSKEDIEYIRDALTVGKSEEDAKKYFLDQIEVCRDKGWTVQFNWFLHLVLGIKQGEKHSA

Sequence of Phosphatidylinositol 4,5-bisphosphate 3-kinase catalytic subunit gamma isoform (Homo sapiens, UniProt P48736) (P48736 whole entry, canonical isoform): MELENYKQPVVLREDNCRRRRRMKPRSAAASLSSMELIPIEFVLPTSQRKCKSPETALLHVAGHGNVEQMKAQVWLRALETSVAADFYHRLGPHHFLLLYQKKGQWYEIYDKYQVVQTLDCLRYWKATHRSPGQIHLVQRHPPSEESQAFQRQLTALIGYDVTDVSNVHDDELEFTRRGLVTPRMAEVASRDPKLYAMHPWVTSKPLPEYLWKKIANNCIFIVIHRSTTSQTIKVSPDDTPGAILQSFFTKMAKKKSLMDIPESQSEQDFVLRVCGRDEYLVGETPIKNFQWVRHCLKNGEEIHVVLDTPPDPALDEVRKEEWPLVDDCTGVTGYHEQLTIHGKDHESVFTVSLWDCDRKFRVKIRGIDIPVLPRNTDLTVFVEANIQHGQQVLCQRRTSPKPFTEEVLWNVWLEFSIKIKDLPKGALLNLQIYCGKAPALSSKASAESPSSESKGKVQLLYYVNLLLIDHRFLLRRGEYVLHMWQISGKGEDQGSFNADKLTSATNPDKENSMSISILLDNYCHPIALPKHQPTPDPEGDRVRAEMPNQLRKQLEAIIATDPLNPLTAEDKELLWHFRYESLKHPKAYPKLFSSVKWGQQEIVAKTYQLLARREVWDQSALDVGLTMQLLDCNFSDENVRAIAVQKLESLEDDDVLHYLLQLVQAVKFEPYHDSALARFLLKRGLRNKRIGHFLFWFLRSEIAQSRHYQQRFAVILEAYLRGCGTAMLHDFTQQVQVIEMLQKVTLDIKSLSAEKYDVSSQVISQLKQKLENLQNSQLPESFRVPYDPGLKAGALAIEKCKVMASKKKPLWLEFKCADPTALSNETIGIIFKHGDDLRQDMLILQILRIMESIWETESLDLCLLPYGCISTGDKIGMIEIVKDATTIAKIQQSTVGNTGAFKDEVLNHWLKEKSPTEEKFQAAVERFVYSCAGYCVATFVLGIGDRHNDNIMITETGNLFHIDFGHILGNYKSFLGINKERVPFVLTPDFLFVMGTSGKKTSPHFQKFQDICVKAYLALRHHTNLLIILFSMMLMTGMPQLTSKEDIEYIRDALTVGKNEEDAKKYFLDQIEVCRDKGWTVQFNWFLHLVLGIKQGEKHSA

SMILES | IC50 [1] | IC50 [2] | IC50 [3] | IC50 [4]
CC(=O)Nc1nc(C)c(-c2cc3c(c(S(=O)(=O)Nc4cccc(CN(C)C)c4)c2)C(=O)N([C@@H](C)C2CC2)C3)s1 | 15.8 nM | 2 nM |  | 
Cc1nc2sc1-c1cc3c(c(c1)S(=O)(=O)Nc1ccc(cc1)CN(C)CCCNC(=O)c1cccc(n1)N2)C(=O)N([C@@H](C)C1CC1)C3 | 0.794 nM | 7.94 nM | 1.58 nM | 3.98 nM
CNS(=O)(=O)c1cc(-c2sc(Nc3cccc(N(C)C(C)=O)n3)nc2C)cc2c1C(=O)N([C@@H](C)C1CC1)C2 | 0.794 nM |  | 6.31 nM | 1 nM
CC(=O)Nc1nc(C)c(-c2cc3c(c(S(=O)(=O)Nc4ccccc4)c2)C(=O)N([C@@H](C)C2CC2)C3)s1 | 50.1 nM | 1 nM |  | 
CNS(=O)(=O)c1cc(-c2sc(Nc3cccc(C(=O)NCCCN(C)C)n3)nc2C)cc2c1C(=O)N([C@@H](C)C1CC1)C2 | 3.98 nM | 3.16 nM |  | 
Cc1nc2sc1-c1cc3c(c(c1)S(=O)(=O)Nc1ccc(cc1)CN(C)CCCCNC(=O)c1cccc(n1)N2)C(=O)N([C@@H](C)C1CC1)C3 | 1 nM | 10 nM | 1 nM | 5.01 nM
CC(=O)Nc1cccc(Nc2nc(C)c(-c3cc4c(c(S(C)(=O)=O)c3)C(=O)N([C@@H](C)C3CC3)C4)s2)n1 | 15.8 nM | 1 nM |  | 
CC(=O)Nc1nc(C)c(-c2cc3c(c(S(=O)(=O)Nc4cc(C#N)cc(S(C)(=O)=O)c4)c2)C(=O)N([C@@H](C)C2CC2)C3)s1 | 25.1 nM |  |  | 
Cc1nc(-c2cccc(Nc3nc(C)c(-c4cc5c(c(S(C)(=O)=O)c4)C(=O)N([C@@H](C)C4CC4)C5)s3)n2)n(C)n1 | 1.58 nM | 1 nM |  | 
CCN(CC)C(=O)c1cccc(Nc2nc(C)c(-c3cc4c(c(S(=O)(=O)NC)c3)C(=O)N([C@@H](C)C3CC3)C4)s2)n1 | 158 nM | 3.16 nM |  | 
CNS(=O)(=O)c1cc(-c2sc(Nc3cccc(C)n3)nc2C)cc2c1C(=O)N([C@@H](C)C1CC1)C2 | 50.1 nM | 1 nM |  | 
CC(=O)Nc1nc(C)c(-c2cc3c(c(S(=O)(=O)Nc4ccc(S(C)(=O)=O)cc4)c2)C(=O)N([C@@H](C)C2CC2)C3)s1 | 158 nM | 1 nM |  | 
CC(=O)Nc1nc(C)c(-c2cc3c(c(S(=O)(=O)Nc4ccc(CN(C)C)cc4)c2)C(=O)N([C@@H](C)C2CC2)C3)s1 | 6.31 nM | 2.51 nM | 50.1 nM | 
Cc1nc(Nc2cccc(-c3nc(C)n(C)n3)n2)sc1-c1cc2c(c(S(C)(=O)=O)c1)C(=O)N([C@@H](C)C1CC1)C2 | 25.1 nM | 1 nM |  | 
COCCNC(=O)c1cccc(Nc2nc(C)c(-c3cc4c(c(S(C)(=O)=O)c3)C(=O)N([C@@H](C)C3CC3)C4)s2)n1 | 5.01 nM | 0.794 nM |  | 
CC(=O)Nc1nc(C)c(-c2cc3c(c(S(=O)(=O)N(C)c4cccc(C#N)c4)c2)C(=O)N([C@@H](C)C2CC2)C3)s1 | 50.1 nM | 0.794 nM |  | 
CC(=O)Nc1nc(C)c(-c2cc3c(c(S(=O)(=O)Nc4cccc(C#N)c4)c2)C(=O)N([C@@H](C)C2CC2)C3)s1 | 10 nM |  | 126 nM | 
CNS(=O)(=O)c1cc(-c2sc(Nc3ccc(C(=O)NCCCN(C)C)cn3)nc2C)cc2c1C(=O)N([C@@H](C)C1CC1)C2 | 6.31 nM | 1.26 nM |  | 
CC(=O)Nc1nc(C)c(-c2cc3c(c(S(=O)(=O)Nc4ccc(C#N)cc4)c2)C(=O)N([C@@H](C)C2CC2)C3)s1 | 158 nM | 1 nM |  | 
CNS(=O)(=O)c1cc(-c2sc(Nc3cccc(N4C[C@H](O)CC4=O)n3)nc2C)cc2c1C(=O)N([C@@H](C)C1CC1)C2 | 1.26 nM |  | 7.94 nM | 2 nM
CC(=O)Nc1nc(C)c(-c2cc3c(c(S(=O)(=O)N(C)c4ccc(CN(C)C)cc4)c2)C(=O)N([C@@H](C)C2CC2)C3)s1 | 25.1 nM | 2.51 nM |  | 
Cc1nc(Nc2cccc(-c3ocnc3CO)n2)sc1-c1cc2c(c(S(C)(=O)=O)c1)C(=O)N([C@@H](C)C1CC1)C2 | 2 nM | 0.631 nM |  | 
CC(=O)N(C)c1cccc(Nc2nc(C)c(-c3cc4c(c(S(C)(=O)=O)c3)C(=O)N([C@@H](C)C3CC3)C4)s2)n1 | 1.26 nM |  |  | 
